Test results as given in article PMC7385619, “A triple action CDK4/6-PI3K-BET inhibitor with augmented cancer cell cytotoxicity” (Cell Discovery, 2020).
Read-outs that look alike come from different tables or passages of the source.

How the values were obtained:
Experiment in all cases: KINOMEscan assay (Eurofins DiscoverX)
Assay type in all cases: binding
kinome (kinase panel) [1] = biological target: T1, kinome (kinase panel) (Homo sapiens, UniProt O14733); details: MKK7 (Entrez MAP2K7); 1000 nM; read-out: Percent Control
T1 construct: purchased Eurofins DiscoverX

kinome (kinase panel) [2] = biological target: T2, kinome (kinase panel) (Homo sapiens, UniProt O14936); details: CASK; 1000 nM; read-out: Percent Control
T2 construct: purchased Eurofins DiscoverX

kinome (kinase panel) [3] = biological target: T3, kinome (kinase panel) (Homo sapiens, UniProt O75582); details: 1000 nM, read-out: Percent Control
T3 construct: purchased Eurofins DiscoverX
T3 sequence (O75582 whole entry): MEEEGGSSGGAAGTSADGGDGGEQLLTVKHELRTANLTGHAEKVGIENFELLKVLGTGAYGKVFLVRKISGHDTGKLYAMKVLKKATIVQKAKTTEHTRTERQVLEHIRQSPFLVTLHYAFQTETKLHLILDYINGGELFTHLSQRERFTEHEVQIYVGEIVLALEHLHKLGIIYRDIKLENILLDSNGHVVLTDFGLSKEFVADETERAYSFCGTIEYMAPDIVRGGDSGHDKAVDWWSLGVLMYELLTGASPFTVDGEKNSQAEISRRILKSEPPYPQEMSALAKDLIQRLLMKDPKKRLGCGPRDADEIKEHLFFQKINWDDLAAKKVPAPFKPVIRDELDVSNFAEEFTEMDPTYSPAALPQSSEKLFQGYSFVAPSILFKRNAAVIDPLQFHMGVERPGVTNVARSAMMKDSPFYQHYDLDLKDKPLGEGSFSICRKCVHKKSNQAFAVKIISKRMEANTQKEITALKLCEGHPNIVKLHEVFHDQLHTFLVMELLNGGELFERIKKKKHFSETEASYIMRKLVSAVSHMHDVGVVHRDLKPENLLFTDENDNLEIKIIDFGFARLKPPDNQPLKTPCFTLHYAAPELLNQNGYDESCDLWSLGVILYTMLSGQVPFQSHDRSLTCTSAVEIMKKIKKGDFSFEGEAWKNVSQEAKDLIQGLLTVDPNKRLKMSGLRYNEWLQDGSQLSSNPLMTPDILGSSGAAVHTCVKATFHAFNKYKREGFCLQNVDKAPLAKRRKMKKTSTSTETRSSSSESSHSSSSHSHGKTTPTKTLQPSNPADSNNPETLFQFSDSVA

kinome (kinase panel) [4] = biological target: T4, kinome (kinase panel) (Homo sapiens, UniProt O75716); details: STK16; 1000 nM; read-out: Percent Control
T4 construct: purchased Eurofins DiscoverX
T4 sequence (O75716 whole entry): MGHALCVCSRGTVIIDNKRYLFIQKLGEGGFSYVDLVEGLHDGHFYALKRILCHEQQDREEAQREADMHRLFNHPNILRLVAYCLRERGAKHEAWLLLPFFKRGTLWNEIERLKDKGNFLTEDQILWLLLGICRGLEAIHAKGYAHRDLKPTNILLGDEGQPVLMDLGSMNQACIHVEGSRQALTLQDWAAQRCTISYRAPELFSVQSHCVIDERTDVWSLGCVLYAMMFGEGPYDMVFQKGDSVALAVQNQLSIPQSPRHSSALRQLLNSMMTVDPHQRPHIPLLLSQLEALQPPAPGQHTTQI

kinome (kinase panel) [5] = biological target: T5, kinome (kinase panel) (Homo sapiens, UniProt O76039); details: CDKL5; 1000 nM; read-out: Percent Control
T5 construct: purchased Eurofins DiscoverX

kinome (kinase panel) [6] = biological target: T6, kinome (kinase panel) (Homo sapiens, UniProt O95819); details: MAP4K4; 1000 nM; read-out: Percent Control
T6 construct: purchased Eurofins DiscoverX

kinome (kinase panel) [7] = biological target: T7, kinome (kinase panel) (Homo sapiens, UniProt P00519, M351T); details: read-out: Percent Control
T7 construct: purchased Eurofins DiscoverX

kinome (kinase panel) [8] = biological target: T8, kinome (kinase panel) (Homo sapiens, UniProt P00533, DEL746-750); details: EGFR(E746-A750del); 1000 nM; read-out: Percent Control
T8 construct: purchased Eurofins DiscoverX

kinome (kinase panel) [9] = biological target: T9, kinome (kinase panel) (Homo sapiens, UniProt P07332); details: FES; 1000 nM; read-out: Percent Control
T9 construct: purchased Eurofins DiscoverX
T9 sequence (P07332 whole entry): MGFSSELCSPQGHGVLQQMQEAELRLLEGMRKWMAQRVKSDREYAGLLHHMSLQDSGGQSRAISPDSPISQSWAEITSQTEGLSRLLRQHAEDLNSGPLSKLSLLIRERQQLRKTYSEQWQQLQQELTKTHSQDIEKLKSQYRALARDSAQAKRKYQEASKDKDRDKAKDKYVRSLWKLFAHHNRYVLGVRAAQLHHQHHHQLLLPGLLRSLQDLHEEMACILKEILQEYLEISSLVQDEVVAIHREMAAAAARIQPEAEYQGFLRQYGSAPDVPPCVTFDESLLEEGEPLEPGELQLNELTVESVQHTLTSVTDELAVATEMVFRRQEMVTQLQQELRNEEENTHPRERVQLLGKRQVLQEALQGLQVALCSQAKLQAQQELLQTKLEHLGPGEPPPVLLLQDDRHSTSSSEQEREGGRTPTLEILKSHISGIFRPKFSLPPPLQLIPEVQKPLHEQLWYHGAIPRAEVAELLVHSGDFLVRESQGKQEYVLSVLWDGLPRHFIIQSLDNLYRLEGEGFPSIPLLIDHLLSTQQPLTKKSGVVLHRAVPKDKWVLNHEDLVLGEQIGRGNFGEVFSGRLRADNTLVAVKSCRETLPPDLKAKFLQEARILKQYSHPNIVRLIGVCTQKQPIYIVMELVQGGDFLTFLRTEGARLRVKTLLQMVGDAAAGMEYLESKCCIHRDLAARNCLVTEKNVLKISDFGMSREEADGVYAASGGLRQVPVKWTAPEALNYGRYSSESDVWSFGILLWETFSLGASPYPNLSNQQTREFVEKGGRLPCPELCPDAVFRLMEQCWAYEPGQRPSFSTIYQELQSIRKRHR

kinome (kinase panel) [10] = biological target: T10, kinome (kinase panel) (Homo sapiens, UniProt P07948); details: LYN; 1000 nM; read-out: Percent Control
T10 construct: purchased Eurofins DiscoverX

kinome (kinase panel) [11] = biological target: T11, kinome (kinase panel) (Homo sapiens, UniProt P10721, T670I/V559D); details: read-out: Percent Control
T11 construct: purchased Eurofins DiscoverX

kinome (kinase panel) [12] = biological target: T12, kinome (kinase panel) (Homo sapiens, UniProt P12931); details: SRC; 1000 nM; read-out: Percent Control
T12 construct: purchased Eurofins DiscoverX

kinome (kinase panel) [13] = biological target: T13, kinome (kinase panel) (Homo sapiens, UniProt P16234); details: PDGFRA; 1000 nM; read-out: Percent Control
T13 construct: purchased Eurofins DiscoverX
T13 sequence (P16234 24-1089): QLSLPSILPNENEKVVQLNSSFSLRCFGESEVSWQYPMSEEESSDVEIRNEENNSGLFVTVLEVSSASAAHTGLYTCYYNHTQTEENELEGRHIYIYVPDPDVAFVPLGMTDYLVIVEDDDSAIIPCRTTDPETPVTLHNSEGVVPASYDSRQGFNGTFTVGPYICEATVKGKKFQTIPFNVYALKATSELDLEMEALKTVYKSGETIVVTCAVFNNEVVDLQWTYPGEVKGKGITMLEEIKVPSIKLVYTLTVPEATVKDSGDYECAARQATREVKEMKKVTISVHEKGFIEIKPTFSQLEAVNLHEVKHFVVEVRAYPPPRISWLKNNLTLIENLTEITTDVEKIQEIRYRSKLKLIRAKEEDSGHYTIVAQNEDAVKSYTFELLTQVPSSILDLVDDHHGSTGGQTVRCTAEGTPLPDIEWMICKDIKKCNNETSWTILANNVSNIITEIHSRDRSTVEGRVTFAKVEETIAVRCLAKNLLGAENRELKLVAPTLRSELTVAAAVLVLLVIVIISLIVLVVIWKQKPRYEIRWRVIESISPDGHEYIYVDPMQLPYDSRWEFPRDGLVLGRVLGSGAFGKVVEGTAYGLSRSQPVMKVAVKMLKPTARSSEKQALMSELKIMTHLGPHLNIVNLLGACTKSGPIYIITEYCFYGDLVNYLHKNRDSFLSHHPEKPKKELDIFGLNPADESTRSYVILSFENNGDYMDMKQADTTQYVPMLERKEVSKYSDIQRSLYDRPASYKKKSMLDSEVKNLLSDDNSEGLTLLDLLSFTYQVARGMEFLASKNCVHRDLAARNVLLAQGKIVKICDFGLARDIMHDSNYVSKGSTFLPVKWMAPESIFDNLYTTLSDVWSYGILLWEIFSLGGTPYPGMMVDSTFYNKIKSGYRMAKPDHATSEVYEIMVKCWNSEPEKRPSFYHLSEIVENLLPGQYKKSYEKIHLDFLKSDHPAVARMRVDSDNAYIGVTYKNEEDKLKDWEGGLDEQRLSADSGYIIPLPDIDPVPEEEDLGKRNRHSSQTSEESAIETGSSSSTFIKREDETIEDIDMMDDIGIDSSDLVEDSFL

kinome (kinase panel) [14] = biological target: T14, kinome (kinase panel) (Homo sapiens, UniProt P29317); details: EPHA2; 1000 nM; read-out: Percent Control
T14 construct: purchased Eurofins DiscoverX

kinome (kinase panel) [15] = biological target: T15, kinome (kinase panel) (Homo sapiens, UniProt P30530); details: AXL; 1000 nM; read-out: Percent Control
T15 construct: purchased Eurofins DiscoverX

kinome (kinase panel) [16] = biological target: T16, kinome (kinase panel) (Homo sapiens, UniProt P45983); details: JNK1 (Entrez MAPK8); 1000 nM; read-out: Percent Control
T16 construct: purchased Eurofins DiscoverX

kinome (kinase panel) [17] = biological target: T17, kinome (kinase panel) (Homo sapiens, UniProt P49760); details: CLK2; 1000 nM; read-out: Percent Control
T17 construct: purchased Eurofins DiscoverX

kinome (kinase panel) [18] = biological target: T18, kinome (kinase panel) (Homo sapiens, UniProt P49841); details: GSK3B; 1000 nM; read-out: Percent Control
T18 construct: purchased Eurofins DiscoverX

kinome (kinase panel) [19] = biological target: T19, kinome (kinase panel) (Homo sapiens, UniProt P51451); details: BLK; 1000 nM; read-out: Percent Control
T19 construct: purchased Eurofins DiscoverX

kinome (kinase panel) [20] = biological target: T20, kinome (kinase panel) (Homo sapiens, UniProt Q12866); details: MERTK; 1000 nM; read-out: Percent Control
T20 construct: purchased Eurofins DiscoverX

kinome (kinase panel) [21] = biological target: T21, kinome (kinase panel) (Homo sapiens, UniProt Q13164); details: ERK5 (Entrez MAPK7); 1000 nM; read-out: Percent Control
T21 construct: purchased Eurofins DiscoverX

kinome (kinase panel) [22] = biological target: T22, kinome (kinase panel) (Homo sapiens, UniProt Q13546); details: RIPK1; 1000 nM; read-out: Percent Control
T22 construct: purchased Eurofins DiscoverX

kinome (kinase panel) [23] = biological target: T23, kinome (kinase panel) (Homo sapiens, UniProt Q15375); details: EPHA7; 1000 nM; read-out: Percent Control
T23 construct: purchased Eurofins DiscoverX

kinome (kinase panel) [24] = biological target: T24, kinome (kinase panel) (Homo sapiens, UniProt Q52WX2); details: SBK1; 1000 nM; read-out: Percent Control
T24 construct: purchased Eurofins DiscoverX

kinome (kinase panel) [25] = biological target: T25, kinome (kinase panel) (Homo sapiens, UniProt Q92630); details: DYRK2; 1000 nM; read-out: Percent Control
T25 construct: purchased Eurofins DiscoverX

kinome (kinase panel) [26] = biological target: T26, kinome (kinase panel) (Homo sapiens, UniProt Q96L34); details: MARK4; 1000 nM; read-out: Percent Control
T26 construct: purchased Eurofins DiscoverX

kinome (kinase panel) [27] = biological target: T27, kinome (kinase panel) (Homo sapiens, UniProt Q99683); details: ASK1 (Entrez MAP3K5); 1000 nM; read-out: Percent Control
T27 construct: purchased Eurofins DiscoverX

kinome (kinase panel) [28] = biological target: T28, kinome (kinase panel) (Homo sapiens, UniProt Q9BYP7); details: WNK3; 1000 nM; read-out: Percent Control
T28 construct: purchased Eurofins DiscoverX

kinome (kinase panel) [29] = biological target: T29, kinome (kinase panel) (Homo sapiens, UniProt Q9HCP0); details: CSNK1G1; 1000 nM; read-out: Percent Control
T29 construct: purchased Eurofins DiscoverX

kinome (kinase panel) [30] = biological target: T30, kinome (kinase panel) (Homo sapiens, UniProt Q9UK32); details: 1000 nM, read-out: Percent Control
T30 construct: purchased Eurofins DiscoverX
T30 sequence (Q9UK32 whole entry): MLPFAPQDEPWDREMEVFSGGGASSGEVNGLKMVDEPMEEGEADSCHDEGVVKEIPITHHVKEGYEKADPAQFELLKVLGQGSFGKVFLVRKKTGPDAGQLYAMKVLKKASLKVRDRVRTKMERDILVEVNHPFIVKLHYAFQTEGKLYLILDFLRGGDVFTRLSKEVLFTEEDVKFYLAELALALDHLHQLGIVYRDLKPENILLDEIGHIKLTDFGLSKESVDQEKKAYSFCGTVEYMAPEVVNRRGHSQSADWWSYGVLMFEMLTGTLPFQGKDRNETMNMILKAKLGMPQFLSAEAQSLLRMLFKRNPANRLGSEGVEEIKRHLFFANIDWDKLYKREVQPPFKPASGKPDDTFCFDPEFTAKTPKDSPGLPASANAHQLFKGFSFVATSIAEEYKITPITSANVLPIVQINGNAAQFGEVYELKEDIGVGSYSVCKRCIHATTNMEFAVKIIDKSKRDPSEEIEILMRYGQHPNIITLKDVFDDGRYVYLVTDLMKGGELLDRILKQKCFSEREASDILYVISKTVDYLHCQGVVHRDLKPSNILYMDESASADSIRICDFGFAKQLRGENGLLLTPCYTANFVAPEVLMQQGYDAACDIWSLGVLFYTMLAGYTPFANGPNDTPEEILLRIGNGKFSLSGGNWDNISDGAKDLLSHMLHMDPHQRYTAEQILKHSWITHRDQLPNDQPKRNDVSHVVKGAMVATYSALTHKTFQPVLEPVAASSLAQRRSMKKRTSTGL

kinome (kinase panel) [31] = biological target: T31, kinome (kinase panel) (Homo sapiens, UniProt Q9Y616); details: IRAK3; 1000 nM; read-out: Percent Control
T31 construct: purchased Eurofins DiscoverX
T31 sequence (Q9Y616 whole entry): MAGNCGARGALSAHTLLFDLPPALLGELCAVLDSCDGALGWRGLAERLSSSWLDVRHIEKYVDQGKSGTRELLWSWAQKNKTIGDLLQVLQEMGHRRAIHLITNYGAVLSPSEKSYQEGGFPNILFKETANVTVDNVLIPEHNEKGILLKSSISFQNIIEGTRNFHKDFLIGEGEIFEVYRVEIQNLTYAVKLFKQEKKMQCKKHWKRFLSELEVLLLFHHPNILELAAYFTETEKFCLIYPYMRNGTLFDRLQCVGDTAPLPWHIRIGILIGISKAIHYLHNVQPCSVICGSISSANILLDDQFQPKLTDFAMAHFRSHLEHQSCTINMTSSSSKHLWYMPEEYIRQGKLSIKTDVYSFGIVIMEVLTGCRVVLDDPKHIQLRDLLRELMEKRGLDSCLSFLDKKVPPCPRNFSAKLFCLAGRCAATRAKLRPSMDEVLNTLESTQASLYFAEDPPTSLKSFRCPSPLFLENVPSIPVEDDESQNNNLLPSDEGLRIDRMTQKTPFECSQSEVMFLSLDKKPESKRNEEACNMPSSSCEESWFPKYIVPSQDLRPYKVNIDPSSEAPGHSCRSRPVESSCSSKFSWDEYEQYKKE

kinome (kinase panel) [32] = biological target: T32, kinome (kinase panel) (Plasmodium falciparum, UniProt P62344); details: PFCDPK1(P.falciparum) (Entrez CDPK1); 1000 nM; read-out: Percent Control
T32 construct: purchased Eurofins DiscoverX
T32 sequence (P62344 whole entry): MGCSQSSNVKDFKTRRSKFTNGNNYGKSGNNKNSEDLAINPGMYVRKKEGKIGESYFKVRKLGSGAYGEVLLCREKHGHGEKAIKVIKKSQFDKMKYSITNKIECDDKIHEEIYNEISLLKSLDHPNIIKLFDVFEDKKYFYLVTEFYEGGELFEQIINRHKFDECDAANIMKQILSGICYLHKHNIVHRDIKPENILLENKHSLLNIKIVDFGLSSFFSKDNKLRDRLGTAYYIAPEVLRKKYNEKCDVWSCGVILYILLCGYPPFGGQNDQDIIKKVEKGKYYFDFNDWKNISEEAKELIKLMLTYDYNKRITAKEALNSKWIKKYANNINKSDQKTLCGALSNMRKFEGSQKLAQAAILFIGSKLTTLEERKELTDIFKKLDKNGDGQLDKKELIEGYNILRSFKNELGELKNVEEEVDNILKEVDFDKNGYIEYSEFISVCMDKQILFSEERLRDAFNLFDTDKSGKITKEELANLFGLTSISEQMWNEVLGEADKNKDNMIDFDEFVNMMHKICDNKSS

Question: With `CN(C)C(=O)c1cc2cnc(Nc3ccc(-c4csc5c(=O)cc(N6CCOCC6)oc45)cc3)nc2n1C1CCCC1` [SRX3177] as the molecule, how does the remaining binding at 1 µM (kinome (kinase panel) [1]) read?
Answer: 46%

Question: What about the remaining binding at 1 µM (kinome (kinase panel) [2]) of the same molecule?
Answer: 35%

Question: And the remaining binding at 1 µM (kinome (kinase panel) [3]; RPS6KA5(Kin.Dom.1-N-terminal))?
Answer: 100%

Question: And the remaining binding at 1 µM (kinome (kinase panel) [3]; RPS6KA5(Kin.Dom.2-C-terminal))?
Answer: 100%

Question: And the remaining binding at 1 µM (kinome (kinase panel) [4])?
Answer: 28%

Question: And the remaining binding at 1 µM (kinome (kinase panel) [5])?
Answer: 65%

Question: What about the remaining binding at 1 µM (kinome (kinase panel) [6]) of the same molecule?
Answer: 100%

Question: What about the remaining binding at 1 µM (kinome (kinase panel) [7]) of the same molecule?
Answer: 49%

Question: What about the remaining binding at 1 µM (kinome (kinase panel) [8]) of the same molecule?
Answer: 72%

Question: And the remaining binding at 1 µM (kinome (kinase panel) [9])?
Answer: 88%

Question: What about the remaining binding at 1 µM (kinome (kinase panel) [10]) of the same molecule?
Answer: 94%

Question: And the remaining binding at 1 µM (kinome (kinase panel) [11])?
Answer: 100%

Question: What about the remaining binding at 1 µM (kinome (kinase panel) [12]) of the same molecule?
Answer: 74%

Question: And the remaining binding at 1 µM (kinome (kinase panel) [13])?
Answer: 60%

Question: What about the remaining binding at 1 µM (kinome (kinase panel) [14]) of the same molecule?
Answer: 76%

Question: And the remaining binding at 1 µM (kinome (kinase panel) [15])?
Answer: 89%

Question: And the remaining binding at 1 µM (kinome (kinase panel) [16])?
Answer: 62%

Question: And the remaining binding at 1 µM (kinome (kinase panel) [17])?
Answer: 92%

Question: What about the remaining binding at 1 µM (kinome (kinase panel) [18]) of the same molecule?
Answer: 75%

Question: And the remaining binding at 1 µM (kinome (kinase panel) [19])?
Answer: 100%

Question: And the remaining binding at 1 µM (kinome (kinase panel) [20])?
Answer: 86%

Question: What about the remaining binding at 1 µM (kinome (kinase panel) [21]) of the same molecule?
Answer: 96%

Question: And the remaining binding at 1 µM (kinome (kinase panel) [22])?
Answer: 96%

Question: What about the remaining binding at 1 µM (kinome (kinase panel) [23]) of the same molecule?
Answer: 100%

Question: What about the remaining binding at 1 µM (kinome (kinase panel) [24]) of the same molecule?
Answer: 67%

Question: And the remaining binding at 1 µM (kinome (kinase panel) [25])?
Answer: 69%

Question: And the remaining binding at 1 µM (kinome (kinase panel) [26])?
Answer: 100%

Question: And the remaining binding at 1 µM (kinome (kinase panel) [27])?
Answer: 100%

Question: What about the remaining binding at 1 µM (kinome (kinase panel) [28]) of the same molecule?
Answer: 100%

Question: What about the remaining binding at 1 µM (kinome (kinase panel) [29]) of the same molecule?
Answer: 82%

Question: What about the remaining binding at 1 µM (kinome (kinase panel) [30]; RSK4(Kin.Dom.1-N-terminal) (RPS6KA6)) of the same molecule?
Answer: 90%

Question: And the remaining binding at 1 µM (kinome (kinase panel) [30]; RSK4(Kin.Dom.2-C-terminal) (RPS6KA6))?
Answer: 90%

Question: And the remaining binding at 1 µM (kinome (kinase panel) [31])?
Answer: 83%

Question: And the remaining binding at 1 µM (kinome (kinase panel) [32])?
Answer: 71%
